Results reported in patent US12419873B2, “Use of JAK inhibitors in preparation of drugs for treating JAK kinase-related diseases” (ZHUHAI UNITED LABORATORIES CO., LTD., priority 2020, dated 2025).
pIC50: −log10 of the molar value. “Also recorded” adds a separate entry of the source.

Tests used:
[1] = system: DSS induced ulcerative colitis and Crohn's disease in mice; experiment: In vivo pharmacodynamic study on DSS induced inflammatory bowel disease (IBD) in mice; design: species or system mice (C57BL/6); Colon length: unit not given here; details: for Colon length: after the experiment
Description: Inflammatory bowl disease (IBD) is a kind of recurrent disease. It is difficult to cure, has a high recurrence rate, and has a poor prognosis, it has a certain correlation with the incidence of colon cancer. The development of drugs for the treatment of IBD will help alleviate the symptoms of ulcerative colitis and Crohn's disease and improve the quality of life of patients. The mouse inflammation model induced by dextran sulfate sodium (DSS) is similar to the human disease ulcerative colitis and Crohn's disease. It is a common classical model for preclinical evaluation of drug efficacy.
Preparation method of DSS: 20 g DSS was weighed, 1000 mL drinking water was added to form 2% DSS solution, and stored in a 4° C. refrigerator. It is effective within one month.
Preparation method of a solvent: Vehicle solution is an aqueous solution containing 0.5% methylcellulose and 0.5% Tween 80. Firstly, 5 g of methylcellulose was dissolved in 990 mL of pure water, then 5 g of Tween 80 was added in small amount for many times, mixed evenly and stored at room temperature.
Preparation method of compounds: the compound was weighed, an aqueous solution with a mass ratio of 0.5% methylcellulose+0.5% Tween 80 was added, and it was processed by ultrasonic until it was dissolved.
The adaptation period of the animals was 3 days. After adaptation, the animals were weighed every day. The blank group was given drinking water, and the other groups were given drinking water containing 2% DSS. The water volume was 5 mL/animal/day. The animals in the test drug group were administrated by gavage once a day. The blank group and […] group were given the same volume of vehicle, with the administration volume of 10 mL/kg. Every other day, the fecal viscosity was evaluated, feces were collected for fecal occult blood detection, and the disease activity index (DAI) score was calculated. DSS consumption was detected every day. Fresh DSS solution was replaced every two days. The dosing cycle was continuous intragastric administration for 7 days, followed by 4 days of drug withdrawal, followed by 7 days of continuous intragastric administration. Normal drinking water was changed when intragastric administration was stopped.
DAI is the sum of the scores of body weight, fecal viscosity and fecal occult blood. Among them, the semi quantitative detection method of piramine cave was adopted for detecting fecal occult blood, including adding piramine cave to the sample first, then adding hydrogen peroxide and ethanol solution, and reading and scoring the color within 2 min. Immediately generating purple blue is marked as 4+, generating the purple blue within 10 s is marked as 3+, generating purple red within 1 min is marked as 2+, and gradually generating the purple red within 1-2 min is marked as 1+, and generating no color reaction of purple orchid or purple red within the reading time is recorded as negative (−). After the experiment, the colon and spleen were taken, and the length of colon and the weight of spleen were measured. The spleen index was the ratio of spleen weight to body weight.

[2] = system: DNCB induced allergic dermatitis in mice; experiment: In vivo pharmacodynamic study on DNCB induced allergic dermatitis (AD) in mice
Experimental: The animal allergic dermatitis model induced by 1-chloro-2,4-dinitrobenzene (DNCB) is basically consistent with the clinical manifestations of AD patients.
Preparation method of solvent: vehicle solution is 30% PEG-400+70% (5% HP-β-CD), pH 4-5. Firstly, 35 g HP-β-CD was dissolved in 700 mL MilliQ pure water, 300 mL PEG-400 was added and mixed well, the pH was adjusted to 4-5, and stored at room temperature.
Preparation method of compounds: the compounds were weighed and added to 30% PEG-400+ 70% (5% HP-β-CD) solution (by volume), and ultrasonically processed. After the solution was fully mixed, it is load into glass bottles and stored in a 4° C. refrigerator.
Seventy male Balb/c mice were weighed and randomly divided into 7 groups with 10 mice in each group.
The animal adaptation period was 3 days. It was adapted to shaving on the back. After 2 days, it was sensitized with the modeling solution, coated with 20 μL 0.5% DNCB solution on the right ear of the mouse, applied with 200 μL 0.5% DNCB solution on the back, once a day for 3 days. The mice were stimulated from day 4, and applied with 10 μL 1% DNCB solution on the right ear of mice, 100 μL 1% DNCB solution on the back of mice, respectively, once every 3 days.
On days 3, 9, 15, 21, and 27, the severity of specific dermatitis was evaluated by evaluating four clinical inflammatory indicators of atopic dermatitis: Erythema/bleeding, scar/dryness, edema, and infiltration/erosion. Each evaluation index has four grades: 0, none; 1. slight; 2. moderate; 3. obvious; 4. very obvious. Sum the scores represents score of the skin. […] The spleen was taken and the spleen index was calculated: spleen index=spleen weight (mg)/body weight (g).
The experimental data were expressed by means±standard error (Mean±SEM), and all data were statistically analyzed by one-way ANOVA, with P<0.05 as the statistical difference.

[3] = target: JAK3 (Homo sapiens (Human), UniProt P52333); experiment: In vitro activity test of JAK3 kinase; format: biochemical
Experimental: (§1) Recombinant human JAK1, JAK2, JAK3, TyK2 protease, main instruments and reagents were provided by Eurofins in the UK
(§2) All compounds were prepared into a 100% DMSO solution and reached 50 times the final determined concentration. The test compound was diluted by 3 times the concentration gradient, and the final concentration was 10 μM to 0.001 μM, 9 concentrations in total, and the content of DMSO in the detection reaction was 2%. The working stock solution of the compound was added to a determination hole as the first component of the reaction, and then the remaining components were added according to the detailed scheme determination below.
(§3) Mg/ATP mixture was added to start the reaction. After incubation at room temperature for 40 minutes, 0.5% phosphoric acid was added to stop the reaction.

[4] = target: JAK1 (Homo sapiens (Human), UniProt P23458); experiment: In vitro activity test of JAK1 kinase; format: biochemical
Experimental: as §1, §2, §3

[5] = target: TYK2 (Homo sapiens (Human), UniProt P29597); experiment: In vitro activity test of TYK2 kinase; format: biochemical
Experimental: as §1, §2, §3

[6] = day 2, 30 mg/kg p.o. qd, Mean±SEM
[7] = day 4, 30 mg/kg p.o. qd, Mean±SEM
[8] = day 6, 30 mg/kg p.o. qd, Mean±SEM
[9] = day 8, 30 mg/kg p.o. qd, Mean±SEM
[10] = day 9, 30 mg/kg p.o. qd, Mean±SEM
[11] = day 10, 30 mg/kg p.o. qd, Mean±SEM
[12] = day 12, 30 mg/kg p.o. qd, Mean±SEM
[13] = day 13, 30 mg/kg p.o. qd, Mean±SEM
[14] = day 14, 30 mg/kg p.o. qd, Mean±SEM
[15] = day 15, 30 mg/kg p.o. qd, Mean±SEM
[16] = day 16, 30 mg/kg p.o. qd, Mean±SEM
[17] = day 18, 30 mg/kg p.o. qd, Mean±SEM
[18] = after the experiment, 30 mg/kg p.o. qd, 28 days, Mean±SEM
[19] = day 3, 30 mg/kg p.o. qd from day 4, Mean±SEM
[20] = day 21, 30 mg/kg p.o. qd, Mean±SEM
[21] = day 21 of administration, 30 mg/kg p.o.
[22] = day 27, 30 mg/kg p.o. qd, Mean±SEM
[23] = day 2, 15 mg/kg p.o. qd, Mean±SEM
[24] = day 4, 15 mg/kg p.o. qd, Mean±SEM
[25] = day 6, 15 mg/kg p.o. qd, Mean±SEM
[26] = day 8, 15 mg/kg p.o. qd, Mean±SEM
[27] = day 12, 15 mg/kg p.o. qd, Mean±SEM
[28] = day 14, 15 mg/kg p.o. qd, Mean±SEM
[29] = day 16, 15 mg/kg p.o. qd, Mean±SEM
[30] = day 18, 15 mg/kg p.o. qd, Mean±SEM

Sequence of JAK1 (P23458 whole entry): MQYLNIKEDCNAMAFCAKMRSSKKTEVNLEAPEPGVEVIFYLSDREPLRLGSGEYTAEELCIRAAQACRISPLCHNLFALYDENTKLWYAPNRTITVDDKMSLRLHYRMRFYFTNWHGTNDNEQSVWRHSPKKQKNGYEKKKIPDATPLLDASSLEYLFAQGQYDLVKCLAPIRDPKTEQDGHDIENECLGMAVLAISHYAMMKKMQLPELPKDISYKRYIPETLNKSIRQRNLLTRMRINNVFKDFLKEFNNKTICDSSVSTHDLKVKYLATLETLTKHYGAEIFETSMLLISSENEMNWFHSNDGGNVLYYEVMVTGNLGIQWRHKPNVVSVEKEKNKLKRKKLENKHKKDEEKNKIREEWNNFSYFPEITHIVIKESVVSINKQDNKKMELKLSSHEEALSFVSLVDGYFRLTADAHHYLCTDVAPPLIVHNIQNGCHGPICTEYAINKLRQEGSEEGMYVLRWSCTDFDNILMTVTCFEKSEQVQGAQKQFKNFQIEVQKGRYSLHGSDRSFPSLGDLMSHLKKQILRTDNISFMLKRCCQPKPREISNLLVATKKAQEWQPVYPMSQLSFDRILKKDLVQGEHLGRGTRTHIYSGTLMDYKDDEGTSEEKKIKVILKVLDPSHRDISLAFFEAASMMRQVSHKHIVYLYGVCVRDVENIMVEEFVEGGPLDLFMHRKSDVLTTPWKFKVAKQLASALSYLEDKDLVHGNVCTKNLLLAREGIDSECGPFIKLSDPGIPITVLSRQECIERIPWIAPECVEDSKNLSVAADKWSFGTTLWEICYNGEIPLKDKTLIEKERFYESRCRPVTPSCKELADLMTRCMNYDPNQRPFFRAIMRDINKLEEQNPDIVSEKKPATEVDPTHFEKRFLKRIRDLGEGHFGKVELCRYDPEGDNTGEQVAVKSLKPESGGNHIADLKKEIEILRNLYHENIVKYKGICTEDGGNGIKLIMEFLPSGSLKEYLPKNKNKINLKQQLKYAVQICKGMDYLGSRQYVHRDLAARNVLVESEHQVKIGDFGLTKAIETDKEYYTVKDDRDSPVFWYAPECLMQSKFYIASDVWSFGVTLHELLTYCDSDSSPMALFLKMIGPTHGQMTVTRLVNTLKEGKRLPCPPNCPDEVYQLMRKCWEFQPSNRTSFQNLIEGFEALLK
Sequence of JAK3 (P52333 whole entry): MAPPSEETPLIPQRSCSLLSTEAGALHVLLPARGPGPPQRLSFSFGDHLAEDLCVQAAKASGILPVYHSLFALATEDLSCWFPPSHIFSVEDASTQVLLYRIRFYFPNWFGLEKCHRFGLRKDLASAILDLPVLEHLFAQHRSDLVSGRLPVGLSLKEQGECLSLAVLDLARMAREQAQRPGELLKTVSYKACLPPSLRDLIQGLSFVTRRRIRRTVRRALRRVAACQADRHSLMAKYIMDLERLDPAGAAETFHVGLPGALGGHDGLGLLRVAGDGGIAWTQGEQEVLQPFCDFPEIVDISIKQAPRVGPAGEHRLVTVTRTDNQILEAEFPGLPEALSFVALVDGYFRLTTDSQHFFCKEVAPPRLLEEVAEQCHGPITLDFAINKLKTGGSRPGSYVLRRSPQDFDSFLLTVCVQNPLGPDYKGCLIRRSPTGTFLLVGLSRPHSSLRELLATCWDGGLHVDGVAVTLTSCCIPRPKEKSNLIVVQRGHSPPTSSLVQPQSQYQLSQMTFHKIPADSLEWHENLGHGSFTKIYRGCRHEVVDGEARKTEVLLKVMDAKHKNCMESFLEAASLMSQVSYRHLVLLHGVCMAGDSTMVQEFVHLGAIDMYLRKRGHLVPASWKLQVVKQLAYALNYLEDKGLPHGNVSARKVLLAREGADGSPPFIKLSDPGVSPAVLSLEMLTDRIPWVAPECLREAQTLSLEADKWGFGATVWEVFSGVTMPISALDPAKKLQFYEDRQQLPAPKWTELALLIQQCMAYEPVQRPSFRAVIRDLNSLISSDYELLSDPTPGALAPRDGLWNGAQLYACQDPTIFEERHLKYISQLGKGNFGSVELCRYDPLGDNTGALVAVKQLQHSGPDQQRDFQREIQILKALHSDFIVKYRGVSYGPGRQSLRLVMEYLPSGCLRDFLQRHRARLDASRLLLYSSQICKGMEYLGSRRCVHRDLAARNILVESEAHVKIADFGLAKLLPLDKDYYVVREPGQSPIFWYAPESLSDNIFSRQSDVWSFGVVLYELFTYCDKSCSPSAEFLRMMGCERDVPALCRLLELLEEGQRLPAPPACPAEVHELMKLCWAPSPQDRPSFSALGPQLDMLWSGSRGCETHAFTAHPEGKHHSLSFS
Sequence of TYK2 (P29597 whole entry): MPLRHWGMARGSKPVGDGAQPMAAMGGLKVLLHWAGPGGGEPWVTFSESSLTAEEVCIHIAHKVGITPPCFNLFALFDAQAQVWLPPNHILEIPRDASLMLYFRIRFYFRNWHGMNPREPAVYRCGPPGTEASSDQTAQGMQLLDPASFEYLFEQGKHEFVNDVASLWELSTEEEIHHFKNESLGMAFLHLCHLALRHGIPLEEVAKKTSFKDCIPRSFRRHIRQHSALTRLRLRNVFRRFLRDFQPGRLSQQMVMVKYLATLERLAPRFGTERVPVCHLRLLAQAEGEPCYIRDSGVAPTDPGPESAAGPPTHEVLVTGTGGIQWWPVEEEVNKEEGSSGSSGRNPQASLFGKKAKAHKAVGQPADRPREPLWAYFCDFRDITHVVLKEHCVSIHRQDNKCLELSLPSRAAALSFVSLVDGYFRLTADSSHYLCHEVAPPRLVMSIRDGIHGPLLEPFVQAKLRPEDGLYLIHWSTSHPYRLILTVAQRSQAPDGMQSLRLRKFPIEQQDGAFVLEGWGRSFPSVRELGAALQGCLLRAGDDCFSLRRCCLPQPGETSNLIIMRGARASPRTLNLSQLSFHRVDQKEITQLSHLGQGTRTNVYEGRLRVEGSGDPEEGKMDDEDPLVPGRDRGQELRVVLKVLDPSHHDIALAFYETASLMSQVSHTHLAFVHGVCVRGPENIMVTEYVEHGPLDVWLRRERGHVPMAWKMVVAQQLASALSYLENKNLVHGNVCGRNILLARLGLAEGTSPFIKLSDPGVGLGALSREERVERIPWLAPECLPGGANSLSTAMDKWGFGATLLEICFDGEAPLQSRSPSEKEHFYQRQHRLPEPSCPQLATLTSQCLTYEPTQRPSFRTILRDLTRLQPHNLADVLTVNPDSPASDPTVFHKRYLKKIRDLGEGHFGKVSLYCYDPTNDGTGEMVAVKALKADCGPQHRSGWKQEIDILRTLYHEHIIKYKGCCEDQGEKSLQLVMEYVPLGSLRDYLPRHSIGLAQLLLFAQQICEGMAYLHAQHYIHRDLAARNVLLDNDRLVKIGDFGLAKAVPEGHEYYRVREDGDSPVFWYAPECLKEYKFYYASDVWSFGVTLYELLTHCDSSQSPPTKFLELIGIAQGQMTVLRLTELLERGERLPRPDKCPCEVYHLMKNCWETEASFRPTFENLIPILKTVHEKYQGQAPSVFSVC

O=C(Nc1nc2cccc(-c3ccc(CN4CCS(=O)(=O)CC4)cc3)n2n1)C1CC1 [Filgotinib, reference compound]
Colon shortening caused by DSS, compared with DSS group (in words) ([1]; 30 mg/kg p.o.): can reduce colon shortening | Increase of spleen index induced by DSS (in words) ([1]; 30 mg/kg p.o.): could reduce the increase of spleen index | Significance of inhibition of spleen index increase ([1]; 30 mg/kg p.o., vs DSS group): significant inhibitory effect | Colon length ([1]; 30 mg/kg p.o. qd, Mean±SEM): 3.13 ± 0.10 | Weight of mice ([1]; day 1, 30 mg/kg p.o. qd, Mean±SEM): 22.10 ± 0.42 | DAI score [1, 6]: 1.20 ± 0.42 | Weight of mice [1, 6]: 22.35 ± 0.41 | Weight of mice ([1]; day 3, 30 mg/kg p.o. qd, Mean±SEM): 22.11 ± 0.31 | DAI score [1, 7]: 2.20 ± 0.61 | Weight of mice [1, 7]: 22.07 ± 0.38 | Weight of mice ([1]; day 5, 30 mg/kg p.o. qd, Mean±SEM): 21.61 ± 0.47 | DAI score [1, 8]: 2.90 ± 0.43 | Weight of mice [1, 8]: 21.21 ± 0.55 | Weight of mice ([1]; day 7, 30 mg/kg p.o. qd, Mean±SEM): 20.28 ± 0.47 | DAI score [1, 9]: 6.40 ± 0.69 | Weight of mice [1, 9]: 19.65 ± 0.47 | Weight of mice [1, 10]: 18.57 ± 0.49 | Weight of mice [1, 11]: 17.98 ± 0.62 | Weight of mice ([1]; day 11, 30 mg/kg p.o. qd, Mean±SEM): 17.85 ± 0.80 | DAI score [1, 12]: 3.56 ± 0.82 | Weight of mice [1, 12]: 18.27 ± 0.91 | Weight of mice [1, 13]: 19.21 ± 0.94 | DAI score [1, 14]: 3.00 ± 0.57 | Weight of mice [1, 14]: 20.16 ± 0.61 | Weight of mice [1, 15]: 21.11 ± 0.58 | DAI score [1, 16]: 3.00 ± 0.96 | Weight of mice [1, 16]: 21.09 ± 0.53 | Weight of mice ([1]; day 17, 30 mg/kg p.o. qd, Mean±SEM): 20.58 ± 0.38 | DAI score [1, 17]: 3.52 ± 0.73 | Weight of mice [1, 17]: 19.59 ± 0.34 | Spleen index ([1]; ratio of spleen weight to body weight, 30 mg/kg p.o. qd, Mean±SEM): 4.04 ± 0.18

O=C(Nc1nc2cccc(C3CCC4(CC3)CN(C(=O)[C@@H]3CC3(F)F)C4)n2n1)C1CC1 [Compound 1-13]
Effect on treating allergic dermatitis (in words) ([2]; 30 mg/kg p.o. qd, DNCB mice): good disease treatment effect; also recorded: significant effect | Thickness of the right ear after drug intervention (in words) ([2]; 30 mg/kg p.o., vs DNCB group): significantly decreased | Thickness of the right ear [2, 18]: 0.232 ± 0.004 | Skin score [2, 19]: 0.5 ± 0.5 | Skin score [2, 10]: 3.9 ± 1.6 | Skin score [2, 15]: 3.7 ± 0.6 | Skin score [2, 20]: 5.0 ± 1.0 | Effect on skin score compared with positive drug Alonson [2, 21]: better effect | Skin score compared with DNCB group (in words) [2, 21]: significantly decreased | Skin score [2, 22]: 1.5 ± 0.5 | Skin score compared with DNCB group (in words) ([2]; day 27 of administration, 30 mg/kg p.o.): significant reduction

N#CC1(C(=O)N2CC3(CCC(c4cccc5nc(NC(=O)C6CC6)nn45)CC3)C2)CC1 [Compound 1-11]
Effect on the weight of mice (in words) ([2]; 30 mg/kg p.o. qd, 28 days): no significant effect | IgE concentration in serum [2, 18]: 7.46 ± 1.34 | Thickness of the right ear [2, 18]: 0.283 ± 0.006 | Weight of mice ([2]; day 1, 30 mg/kg p.o. qd from day 4, Mean±SEM): 19.45 ± 0.59 | Skin score [2, 19]: 0.9 ± 0.3 | Weight of mice [2, 7]: 20.15 ± 0.46 | Skin score [2, 10]: 3.6 ± 1.1 | Weight of mice [2, 11]: 20.21 ± 0.62 | Weight of mice [2, 13]: 20.24 ± 0.41 | Skin score [2, 15]: 4.4 ± 0.8 | Weight of mice [2, 16]: 20.63 ± 0.43 | Weight of mice ([2]; day 19, 30 mg/kg p.o. qd, Mean±SEM): 22.50 ± 0.40 | Skin score [2, 20]: 5.4 ± 0.7 | Weight of mice ([2]; day 22, 30 mg/kg p.o. qd, Mean±SEM): 23.97 ± 0.42 | Weight of mice ([2]; day 25, 30 mg/kg p.o. qd, Mean±SEM): 22.45 ± 0.36 | Skin score [2, 22]: 2.9 ± 1.2 | Weight of mice ([2]; day 28, 30 mg/kg p.o. qd, Mean±SEM): 22.66 ± 0.34 | Colon length ([1]; 15 mg/kg p.o. qd, Mean±SEM): 2.84 ± 0.21 | Weight of mice ([1]; day 1, 15 mg/kg p.o. qd, Mean±SEM): 22.63 ± 0.29 | DAI score [1, 23]: 0.30 ± 0.15 | Weight of mice [1, 23]: 22.64 ± 0.28 | Weight of mice ([1]; day 3, 15 mg/kg p.o. qd, Mean±SEM): 22.20 ± 0.28 | DAI score [1, 24]: 1.50 ± 0.34 | Weight of mice [1, 24]: 21.75 ± 0.25 | Weight of mice ([1]; day 5, 15 mg/kg p.o. qd, Mean±SEM): 20.90 ± 0.30 | DAI score [1, 25]: 3.50 ± 0.27 | Weight of mice [1, 25]: 20.33 ± 0.28 | Weight of mice ([1]; day 7, 15 mg/kg p.o. qd, Mean±SEM): 20.64 ± 0.38 | DAI score [1, 26]: 4.20 ± 0.79 | Weight of mice [1, 26]: 20.44 ± 0.58 | Weight of mice ([1]; day 9, 15 mg/kg p.o. qd, Mean±SEM): 19.49 ± 0.77 | Weight of mice ([1]; day 10, 15 mg/kg p.o. qd, Mean±SEM): 19.00 ± 0.87 | Weight of mice ([1]; day 11, 15 mg/kg p.o. qd, Mean±SEM): 19.73 ± 0.77 | DAI score [1, 27]: 3.11 ± 0.49 | Weight of mice [1, 27]: 20.09 ± 0.90 | Weight of mice ([1]; day 13, 15 mg/kg p.o. qd, Mean±SEM): 20.88 ± 0.86 | DAI score [1, 28]: 3.22 ± 0.79 | Weight of mice [1, 28]: 20.67 ± 0.84 | Weight of mice ([1]; day 15, 15 mg/kg p.o. qd, Mean±SEM): 20.82 ± 0.91 | DAI score [1, 29]: 4.44 ± 0.67 | Weight of mice [1, 29]: 20.41 ± 1.05 | Weight of mice ([1]; day 17, 15 mg/kg p.o. qd, Mean±SEM): 19.85 ± 1.05 | DAI score [1, 30]: 5.89 ± 0.51 | Weight of mice [1, 30]: 18.84 ± 1.06

O=C(Nc1nc2cccc([C@@H]3CCC4(C3)CN(C(=O)[C@@H]3CC3(F)F)C4)n2n1)C1CC1 [Compound 7-8]
pIC50 [3]: < 5.00 | pIC50 [4]: 6.75 | pIC50 [5]: 6.39
